Measured values taken from ChEMBL document CHEMBL1150231, “New sesquiterpene carbonimidic dichlorides and related compounds from the sponge Stylotella aurantium” (J Nat Prod, 2001).

Key:
Format in all cases: functional, cell-based
P388 = test: Cytotoxicity against mouse P388 cells
A549 = test: Cytotoxicity against human A549 cells
HT-29 = test: Cytotoxicity against human HT-29 cells
SK-MEL-28 = test: Cytotoxicity against human SK-MEL-28 cells

Measured: IC50

CC1(C)[C@@H](Cl)[C@@H](O)C[C@]2(C)C/C(=C/C=O)CC[C@@H]12
0.1 µg/mL: all assays above

CC1(C)[C@@H](Cl)[C@@H](O)C[C@]2(C)C/C(=C\C=O)CC[C@@H]12
0.1 µg/mL: all assays above

C=C(CC[C@@H]1C(=C)CC[C@H](Cl)C1(C)C)C(Cl)CN=C(Cl)Cl (some centres not stated)
0.1 µg/mL: all assays above
